Key:
[1] = target: T1, CYP2A6 (Homo sapiens, UniProt P11509); test: Reversible CYP2A6 inhibition, cocktail assay (coumarin 7-hydroxylase) in human liver microsomes; type: biochemical
T1 construct: tissue Corning Life Sciences; host or cells: pooled human liver microsomes, 150 donors
T1 sequence (P11509 1-494): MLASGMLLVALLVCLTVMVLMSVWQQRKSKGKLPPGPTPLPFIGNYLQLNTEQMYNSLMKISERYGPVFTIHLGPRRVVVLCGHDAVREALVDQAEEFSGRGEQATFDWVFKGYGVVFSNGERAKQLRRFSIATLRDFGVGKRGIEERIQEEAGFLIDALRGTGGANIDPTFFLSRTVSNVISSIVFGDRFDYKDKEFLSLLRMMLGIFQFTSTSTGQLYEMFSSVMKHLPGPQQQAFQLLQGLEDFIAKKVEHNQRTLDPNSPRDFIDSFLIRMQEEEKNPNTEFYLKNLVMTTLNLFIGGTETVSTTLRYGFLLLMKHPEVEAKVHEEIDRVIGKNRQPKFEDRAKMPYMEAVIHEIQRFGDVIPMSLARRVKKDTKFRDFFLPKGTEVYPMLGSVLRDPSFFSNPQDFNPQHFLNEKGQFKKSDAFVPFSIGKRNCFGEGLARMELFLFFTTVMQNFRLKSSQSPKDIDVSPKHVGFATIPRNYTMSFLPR
Experimental: The inhibitory effects of SPN on CYP1A2, CYP2A6, CYP2B6, CYP2C8, CYP2C9, CYP2C19, CYP2D6, CYP2E1, and CYP3A4 were evaluated in pooled human liver microsomes through the use of specific CYP probe substrates (cocktail assay), as previously described with a slight modification. Concentrations of each CYP probe in Table 1 were used close to their reported Km values.
Briefly, a 90-µL incubation mixture, including pooled human liver microsomes (final concentration 0.1 mg/mL), 50 mM phosphate buffer (pH 7.4), each CYP-probe substrate cocktail set, and SPN (0–50 μM), was pre-incubated for 5 min at 37 °C. SPN was dissolved in methanol and spiked into the incubation mixture to a final concentration of 0.5% methanol. All P450-selective substrates (except coumarin due to solubility) were dissolved in methanol and serially diluted with methanol to the required concentrations, and the organic solvent was subsequently evaporated under a gentle stream of N2 gas to minimize the effects of organic solvents on CYP activities. On the other hand, coumarin dissolved in 50 mM phosphate buffer (pH 7.4) was directly added into the mixed tube. The reaction was initiated by adding 10-µL aliquot of NADPH-generating system (1.3 mM NADP^+, 3.3 mM glucose 6-phosphate, 3.3 mM MgCl2, and 0.4 unit/mL glucose-6-phosphate dehydrogenase) before 15 min incubation at 37 °C in a shaking water bath. […]
The IC50 values were calculated via nonlinear least-squares regression analysis from logarithmic plots of inhibitor concentration versus percentage of activity remaining after inhibition, using SigmaPlot (ver. 14.0; Systat Software Inc, Chicago, IL, USA). The Ki values were determined from the equations for a single substrate single inhibitor model and the software available in the SigmaPlot Enzyme Kinetics module. Competitive, non-competitive, uncompetitive, or mixed inhibition models were evaluated and ranked according to the best fit based on Akaike Information Criterion (AIC) values. […]

[2] = test system: Caco-2 cells; test: Bi-directional Caco-2 cell permeability; type: in vitro ADME
Experimental: (§1) Caco-2 cell permeability was assessed to predict the oral absorption of SPN. Cell culture and transport studies were performed as previously described. Briefly, for the bi-directional transport studies, the cells were seeded at a density of 1 × 10^5 cells/well, and the cell medium was replaced until they formed confluent monolayers. On the 25th day, the cell monolayers were washed with pre-warmed HBSS buffer. […] Before the experiment, the integrity of the cell monolayers was evaluated by measuring the transepithelial electrical resistance using a Millicell ohmmeter. After 2 h incubation at 37 °C, samples were withdrawn from both sides, respectively. All samples were stored at −80 °C until LC-MS/MS analysis, and all experiments were performed in triplicate.
(§2) The apparent permeability coefficient (Papp) was calculated using the following equation. Papp = (Vr/C0) × (1/A) × ([Drug]/t) where, Vr is the volume of medium in the receiver chamber, C0 is the donor compartment concentration at time zero, A is the area of the cell monolayer, t is the treatment time of the drug, and [Drug] is the drug concentration in the receiver chamber.

[3] = Bi-directional Caco-2 cell permeability; type: in vitro ADME; settings: human, Caco-2
Experimental: as §1, §2

residual enzyme activity, CYP2A6 ([1]; at the highest tested concentration (50 μM)): greater than 80%
IC50 ([1]; human liver microsomes 0.1 mg/mL, cocktail assay, coumarin probe, n = 3, read-out: IC50 Values, CYP2A6): > 50 µM
Papp A-to-B as % of propranolol Papp ([2]; 10 μM): 0.429%
Papp A-to-B as % of propranolol Papp ([2]; 50 μM): 0.642%
Papp A→B at 2 h, 10 µM ([3]; 10 μM, 2 h, n = 3): 0.115 ± 0.0369 ×10⁻⁶ cm/s
Papp B→A at 2 h, 10 µM ([3]; 10 μM, 2 h, n = 3): 0.101 ± 0.00444 ×10⁻⁶ cm/s
Papp A→B at 2 h, 50 µM ([3]; 50 μM, 2 h, n = 3): 0.172 ± 0.0488 ×10⁻⁶ cm/s
Papp B→A at 2 h, 50 µM ([3]; 50 μM, 2 h, n = 3): 0.152 ± 0.0353 ×10⁻⁶ cm/s
efflux ratio at 2 h ([3]; not a substrate for P-gp and BCRP, read-out: efflux ratio (B-to-A/A-to-B)): < 2
Structure (SMILES): CC(C)=CCc1cc([C@@H]2CC(=O)c3ccc(O)c(CC=C(C)C)c3O2)cc(CC=C(C)C)c1O [SPN, (‒)-Sophoranone]
